According to US4788206A, “Pentadieneamides” (Hoffmann-La Roche Inc., priority 1987, dated 1988):

Assays:
[1] = biological target: T1, PAF Binding, dog platelets (Canis lupus familiaris, UniProt A0A8I3NSH0); test: PAF Binding Assay (inhibition of 3H-PAF binding to washed dog platelets); settings: dog platelets, 3H-PAF, 10 minutes at room temperature; read-out: Inhib of PAF Binding IC50
T1 construct: Washed platelets were prepared by resuspending the platelet pellet once with PBS containing 1 mM EDTA; from tissue; host or cells: washed platelets from dog blood
T1 sequence (A0A8I3NSH0 1-343): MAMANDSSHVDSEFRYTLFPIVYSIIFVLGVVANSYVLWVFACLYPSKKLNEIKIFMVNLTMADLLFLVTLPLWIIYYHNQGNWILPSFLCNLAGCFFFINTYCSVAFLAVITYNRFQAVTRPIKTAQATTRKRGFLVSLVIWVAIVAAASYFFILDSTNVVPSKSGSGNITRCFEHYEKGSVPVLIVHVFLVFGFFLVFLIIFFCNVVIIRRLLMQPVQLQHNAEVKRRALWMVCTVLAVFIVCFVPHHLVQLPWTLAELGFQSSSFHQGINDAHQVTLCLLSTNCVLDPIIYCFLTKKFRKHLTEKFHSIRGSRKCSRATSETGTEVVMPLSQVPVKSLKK
Summary of the method: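 Washed dog platelets (2×10^7 per tube, in 0.1% BSA-PBS) incubated 10 min at room temperature with 3H-PAF and test analogs. Bound ligand separated by 1 min centrifugation through silicone oil; platelet pellet radioactivity counted by liquid scintillation.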

[2] = system: PAF-Induced Platelet Count Decrease; test: PAF Induced Platelet Count Decrease; format: in vivo, guinea pig; settings: for inhibition in vivo at 3 mg/kg: Cavia porcellus, Platelet, read-out: Percent Inhib. of PAF-Induced Platelet Count Decrease, 3 mg/Kg; for inhibition in vivo at 3 mg/kg / Percent Inhib. of PAF-Induced Platelet Count Decrease, 3 mg/Kg: 3 mg/Kg (route not given)
Experimental: PAF Induced Platelet Count Decrease
Male Hartley guinea pigs weighing between 500 and 900 grams were fed standard guinea pig chow and tap water ad libitum. PAF was solubilized in ethanol and stored as a 2 mM stock solution at -70° C. The stock solutuion of PAF was diluted to 1 pM in Tris buffer pH 7.4 and 0.1% BSA for all experiments.
(a) Intravenous Procedure
Guinea pigs were anesthetized with urethane (1.6 g/kg, i.p.). A catheter (PE50) was introduced into the right carotid artery for withdrawing blood. A second catheter PE10) was introduced into the jugular vein for injecting drugs and for administering the PAF challenge (75 ng/kg, i.v.). A control blood sample was obtained and platelets were counted in a whole blood platelet analyzer. PAF was then given and blood samples were taken 15, 30, and 60 seconds after the challenge for platelet counts. Fifteen minutes later, selected concentrations of the test compound were solubilized in DMSO and injected intravenously into a group of 4-6 animals. Only one concentration of antagonist was used in each animal group. Fifteen minutes after drug injection, blood smaples were taken before and 15, 30, and 60 sec after the PAF challenge, and analyzed for platelet number.
Animals were anesthetized with sodium pentobarbital (35 mg/kg. i.p.) and the caritoid artery and jugular vein were cannulated as described above. The cannulae were exteriorized at the base of the neck and the animals were allowed to recover. At least 18 hours after surgery, conscious unrestrained guinea pigs were used in the experiment. The animals were challenged two time with PAF (120 ng/kg. i.v.); the first to establish a consistent response to PAF and the second to serve as a control for the PAF challenge. Blood samples were taken before and 15, 30, and 45 seconds after PAF challenge and platelets were counted. Thirty minutes after the control PAF challenge, the animal were orally dosed with either gum acacia or the test compound. Animals were then challenged with PAF at 1, 3, 5, and 24 hours after the administration of the drug.
Data Analysis and Statistics
The % change, i.e., the difference in platelet number before and after PAF challenge was calculated by: [formula]
Statistical significance (p<0.05) of the difference between the mean PAF control and mean drug treated activity was determined with paried Students's t-test.

[3] = system: PAF-Induced Bronchoconstriction; test: PAF Induced Bronchoconstriction Assay; format: in vivo, guinea pig; settings: for Percent Inhib. of PAF-Induced Bronchoconstriction, mg/Kg i.v.: i.v. (dose not given), 1 minute pretreatment, PAF 1.0 μg/kg i.v.; for inhibition in vivo at 50 mg/kg: Cavia porcellus, po, 2-hour pretreatment, read-out: Percent Inhib. of PAF-Induced Bronchoconstriction, 50 mg/Kg p.o.
Summary of the method: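 Male Hartley guinea pigs, urethane-anesthetized (2 g/kg i.p.), ventilated, with succinylcholine 1.2 mg/kg i.v. and propranolol 0.1 mg/kg i.v. pretreatment. Compound given i.v. 1 min or by oral gavage 2 h before i.v. PAF challenge at 1.0 μg/kg. Peak tracheal pressure rise over baseline compared with control mean gives % inhibition.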

Structure (SMILES)	IC50 [1] [nM]	inhibition in vivo at 3 mg/kg [2] [%]	Percent Inhib. of PAF-Induced Bronchoconstriction, mg/Kg i.v. [3]	Percent Inhib. of PAF-Induced Platelet Count Decrease, 3 mg/Kg [2]	inhibition in vivo at 50 mg/kg ([3]; 50 mg/Kg p.o.) [%]	Percent Inhib. of PAF-Induced Platelet Count Decrease, 30 mg/Kg p.o. [2] [%]	Percent Inhib. of PAF-Induced Platelet Count Decrease, 3 mg/Kg (1 min) ([2]; 3 mg/Kg, (1 min)) [%]	Percent Inhib. of PAF-Induced Bronchoconstriction, 50 mg/Kg p.o. (6 hr) ([3]; 50 mg/Kg p.o., (6 hr)) [%]
O=C(/C=C/C=C(c1ccccc1C(F)(F)F)c1ccccc1C(F)(F)F)NCCCCc1cccnc1 [(E)-5,5-bis[2-(Trifluoromethyl)phenyl]-N-[4-(3-pyridinyl)butyl]-2,4-pentadienamide]	80	0	6 ± 10%					
COc1cccc(/C(=C\C=C\C(=O)NCCCCc2cccnc2)c2cccc(F)c2)c1 [(2E,4E)-5-(3-fluorophenyl)-5-(3-methoxyphenyl)-N-[4-(3-pyridinyl)butyl]-2,4-pentadienamide]	25		88 ± 4%	inactive	25 ± 14			
COc1cccc(C(=C/C=C/C(=O)N[C@@H](C)CCCc2cccnc2)c2cccc(OC)c2)c1 [[S-(E)]-5,5-bis(3-methoxyphenyl)-N-[1-methyl-4-(3-pyridinyl)butyl]-2,4-pentadienamide]	300	10	36 ± 4%		10 ± 5			
O=C(/C=C/C=C(c1cccc(C(F)(F)F)c1)c1cccc(C(F)(F)F)c1)NCCCCc1cccnc1 [(E)-5,5-bis[3-(trifluoromethyl)phenyl]-N-[4-(3-pyridinyl)butyl]-2,4-pentadienamide]	150	83	inactive					
O=C(/C=C/C=C(c1ccc(Cl)cc1)c1ccc(Cl)cc1)NCCCCc1cccnc1 [(E)-5,5-bis(4-chlorophenyl)-N-[4-(3-pyridinyl)butyl]-2,4-pentadienamide]	60	0	95 ± 2%		63 ± 10			
O=C(/C=C/C=C(c1cccc(Cl)c1)c1cccc(Cl)c1)NCCCCc1cccnc1 [(E)-5,5-bis(3-chlorophenyl)-N-[4-(3-pyridinyl)butyl]-2,4-pentadienamide]		21	76 ± 14%		35 ± 7			
O=C(/C=C/C=C(c1cccc(F)c1)c1cccc(F)c1)NCCCCc1cccnc1 [(E)-5,5-bis(3-Fluorophenyl)-N-[4-(3-pyridinyl)butyl]-2,4-pentadienamide]	20	61	72 ± 16%		37 ± 11	58		
COc1ccc(C(=C/C=C/C(=O)N[C@H](C)CCCc2cccnc2)c2ccc(OC)cc2)cc1 [[R-(E)]-5,5-bis(4-methoxyphenyl)-N-[1-methyl-4-(3-pyridinyl)butyl]-2,4-pentadienamide]		85	87 ± 4%		97 ± 2	81		
COc1ccc(C(=C/C=C/C(=O)N[C@@H](C)CCCc2cccnc2)c2ccc(OC)cc2)cc1 [[S-(E)]-5,5-bis(4-Methoxyphenyl)-N-[1-methyl-4-(3-pyridinyl)butyl]-2,4-pentadienamide]		42	42 ± 13%		90 ± 6			
C[C@H](CCCc1cccnc1)NC(=O)/C=C/C=C(c1ccc(F)cc1)c1ccc(F)cc1 [[R-(E)]-5,5-bis (4-fluorophenyl)-N-[1-methyl-4-(3-pyridinyl)butyl]-2,4-pentadienamide]		11	70 ± 9%		53 ± 11			
COc1cccc(/C(=C\C=C\C(=O)NCCCCc2cccnc2)c2ccccc2)c1 [(2E,4Z)-5-(3-methoxyphenyl)-5-phenyl-N-[4-(3-pyridinyl)butyl]-2,4-pentadienamide]	35			inactive	10 ± 10			
C[C@H](CCCc1cccnc1)NC(=O)/C=C/C=C(c1cccc(F)c1)c1cccc(F)c1 [[R-(E)]-5,5-bis(3-fluorophenyl)-N-[1-methyl-4-(3-pyridinyl)butyl]-2,4-pentadienamide]		17	73 ± 6%		91 ± 5			
COc1cccc(/C(=C/C=C/C(=O)NCCCCc2cccnc2)c2cccc(F)c2)c1 [(2E,4Z)-5-(3-fluorophenyl)-5-(3-methoxyphenyl)-N-[4-(3-pyridinyl)butyl]-2,4-pentadienamide]	40		90 ± 5%		1 ± 8		67	
COc1ccc(C(=C/C=C/C(=O)NCCCCc2cccnc2)c2ccc(OC)cc2)cc1 [(E)-5,5-bis(4-Methoxyphenyl)-N-[4-(3-pyridinyl)butyl]-2,4-pentadienamide]	25	40	92 ± 3%		82 ± 12	45		
C[C@@H](CCCc1cccnc1)NC(=O)/C=C/C=C(c1cccc(F)c1)c1cccc(F)c1 [[S-(E)]-5,5-bis(3-fluorophenyl)-N-[1-methyl-4-(3-pyridinyl)butyl]-2,4-pentadienamide]		19	34 ± 7%		46 ± 8			
COc1ccc(C(=C/C=C/C(=O)NC(CCCc2cccnc2)C2CCCCC2)c2ccc(OC)cc2)cc1 (racemic) [[R,S-(E)]-N-[1-cyclohexyl-4-(3-pyridinyl)butyl]-5,5-bis(4-methoxyphenyl)-2,4-pentadienamide]	> 1000		11 ± 15%					
COc1ccc(/C(=C/C=C/C(=O)NCCCCc2cccnc2)c2ccccc2OC)cc1 [(2E,4Z)-5-(2-methoxyphenyl)-5-(4-methoxyphenyl)-N-[4-(3-pyridinyl)butyl]-2,4-pentadienamide]	55		36 ± 6%					
COc1ccc(/C(=C/C=C/C(=O)N[C@H](C)CCCc2cccnc2)C2CCCCC2)cc1 [[R-(E,E)]-5-cyclohexyl-5-(4-methoxyphenyl)-N-[1-methyl-4-(3-pyridinyl)butyl]-2,4-pentadienamide]	20		73 ± 17%		97 ± 1			12 ± 10
